compound: COc1cc(-c2nn([C@H]3CC[C@H](N4CCN(C(C)=O)CC4)CC3)c3ncnc(N)c23)ccc1NC(=O)c1cc2ccccc2n1C + COc1cccc2cc(-c3nc([C@H]4CC[C@H](C(=O)O)CC4)n4ncnc(N)c34)[nH]c12 [OSI-027] (partner 0.5 µM); assay: relative viability (nuclei count vs DMSO), 5 days (fraction); higher = more cells survive; details: first compound 0.128 µM
Method in brief: (§1)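 A single step with final 0.05% Triton X-100, 1% formaldehyde and 1 ug/ml Hoechst fixed the cells and stained nuclei 5 days after treatment. Lung cancer cell lines in 1536-well plates had been treated by pin tool the day after seeding with one drug alone or a fixed anchor-drug dose plus five library-drug doses (not always all listed) in √10 steps, and nuclei were counted on 4× images. Relative viability is the ratio of nuclei in treated wells to nuclei in vehicle wells, taken as the median of duplicate plates.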

Cell Line	relative viability
NCI-H23	0.578
NCI-H647	0.617
CAL-12T	0.7
NCI-H1651	0.531
EPLC-272H	0.293
NCI-H2228	0.573
NCI-H1792	0.689
NCI-H1355	0.507
NCI-H3122	0.969
NCI-H1437	0.861
NCI-H1755	0.676
NCI-H2023	0.423
HCC-15	0.616
NCI-H1793	0.237
PC-14	0.798
EKVX	0.618
LC-2-ad	0.864
NCI-H1563	0.848
NCI-H1944	0.412
NCI-H1975	0.611
RERF-LC-KJ	0.581
ABC-1	0.384
NCI-H358	0.508
NCI-H650	0.524
PC-3 [JPC-3]	0.77

same assay, conditions: first compound 1.28 µM

Cell Line	relative viability
HCC-827	0.744
LXF-289	0.652
NCI-H23	0.415
NCI-H647	0.435
CAL-12T	0.461
NCI-H1651	0.644
EPLC-272H	0.264
NCI-H2228	0.45
NCI-H1792	0.558
NCI-H1355	0.433
NCI-H3122	0.847
NCI-H1437	0.838
NCI-H1755	0.662
NCI-H2023	0.28
HCC-15	0.586
NCI-H1793	0.186
PC-14	0.913
EKVX	0.54
LC-2-ad	0.691
NCI-H1563	0.59
NCI-H1944	0.353
NCI-H1975	0.277
RERF-LC-KJ	0.569
ABC-1	0.377
NCI-H358	0.28
NCI-H650	0.458
PC-3 [JPC-3]	0.771

compound: CO[C@@H]1[C@H](N(C)C(=O)c2ccccc2)C[C@H]2O[C@]1(C)n1c3ccccc3c3c4c(c5c6ccccc6n2c5c31)C(=O)NC4 [Midostaurin] + Cc1nc(NC(=O)N2CCC[C@H]2C(N)=O)sc1-c1ccnc(C(C)(C)C(F)(F)F)c1 [Alpelisib] (partner 2 µM); assay: as above; details: first compound 0.01 µM
Method in brief: as §1

Cell Line	relative viability
HCC-827	0.984
LXF-289	0.997
NCI-H23	0.739
NCI-H647	0.948
CAL-12T	1.28
NCI-H1651	1.17
EPLC-272H	0.74
NCI-H2228	0.891
NCI-H1792	0.703
NCI-H1355	0.827
NCI-H3122	0.86
NCI-H1437	1.06
NCI-H1755	0.921
NCI-H2023	0.608
HCC-15	0.944
NCI-H1793	0.705
PC-14	0.827
EKVX	0.968
LC-2-ad	0.82
NCI-H1563	1.09
NCI-H1944	0.799
NCI-H1975	0.613
RERF-LC-KJ	0.846
ABC-1	1.05
NCI-H358	0.891
NCI-H650	1.04
PC-3 [JPC-3]	1

same assay, conditions: first compound 0.03162 µM

Cell Line	relative viability
HCC-827	1
LXF-289	1.02
NCI-H23	0.517
NCI-H647	1.15
CAL-12T	0.765
NCI-H1651	0.92
EPLC-272H	0.909
NCI-H2228	0.762
NCI-H1792	0.672
NCI-H1355	0.788
NCI-H3122	0.683
NCI-H1437	0.995
NCI-H1755	0.912
NCI-H2023	0.563
HCC-15	0.838
NCI-H1793	0.601
PC-14	0.896
EKVX	0.813
LC-2-ad	0.78
NCI-H1563	1.07
NCI-H1944	0.908
NCI-H1975	0.628
RERF-LC-KJ	1.02
ABC-1	0.879
NCI-H358	0.719
NCI-H650	1.07
PC-3 [JPC-3]	0.925

same assay, conditions: first compound 0.1 µM

Cell Line	relative viability
HCC-827	0.948
LXF-289	0.952
NCI-H23	0.339
NCI-H647	0.861
CAL-12T	0.816
NCI-H1651	0.935
EPLC-272H	1.05
NCI-H2228	0.7
NCI-H1792	0.63
NCI-H1355	0.748
NCI-H3122	0.924
NCI-H1437	0.96
NCI-H1755	0.75
NCI-H2023	0.526
HCC-15	0.954
NCI-H1793	0.664
PC-14	0.891
EKVX	0.814
LC-2-ad	0.878
NCI-H1563	0.907
NCI-H1944	0.887
NCI-H1975	0.575
RERF-LC-KJ	0.924
ABC-1	0.816
NCI-H358	0.954
NCI-H650	1.11
PC-3 [JPC-3]	1.02
